According to patent US5025036A, “Catechol carboxylic acids” (Hoffmann-La Roche Inc., priority 1989, dated 1991):

How the values were obtained:
[1] = system: myeloperoxidase accumulation (acetic acid-induced colitis); experiment: Acetic Acid-Induced Colitis in Rats, In Vivo; parameters: species or system male rats (Sprague-Dawley)
Text: The rat acetic acid-induced colitis bioassay has been described by J. E. Krawisz, et al. in Amer. J. Proc. Gastro. Col. Rec. Surg. 31: 11-18 (1980), and by P. Sharon and W. F. Stenson in Gastroenterolgy 88: 55-63 (1985) and 86: 453-460 (1984). Acetic acid-induced colitis is characterized by the movement of inflammatory cells into the colon, with the number of such cells in the mucosa being measured by the activity of myeloperoxidase, a marker enzyme for these cells. Positive desirable activity is indicated by a reduction in the high levels of myeloperoxidase caused by acetic acid. Male rats (Sprague-Dawley), weighing 150 to 300 g, were pretreated twice daily for two days with either the vehicle (water, or dimethylsulfoxide) or the test inhibitor compound suspended in water or dissolved in dimethylsulfoxide and orally administered. On the third day, the animals were dosed the same as on the previous two days, anesthetized with metofane, and 2 ml of 2.5% acetic acid was injected by syringe into the colonic lumen, followed immediately by 3 ml of air and a rinse consisting of 3 ml of phosphate-buffered saline (the acetic acid is present in the lumen for a sufficient period to cause inflammation without producing severe necrosis or irreversible damage). The animals were administered a second dose of the test compound in the same amount about 16 hours later. 24 hours after the acetic acid treatment, the animals were sacrificed, the colonic mucosa was surgically removed and homogenized in an aqueous buffer at pH 6 with a Tissumizer or similar device and myeloperoxidase was measured in the homogenate using o-phenylenediamine as a chromagen, as described by A. Voller, D. E. Bidwell and A. Bartlett in The Enzyme Linked Immunosorbent Assay (ELISA), Zoological Soc., London, 1979, pages 29-30. Control animals were pretreated with the vehicle and saline in place of acetic acid.

[2] = Rat In Vivo Model of Myocardial Ischemia (free radical generator infusion); parameters: species or system male spontaneously hypertensive rats; conditions: for Rat Ischemia Model % Infarction: percent of left ventricle infarcted of the animals with an infarct
Method: In this preparation a free radical generating (FRG) system consisting of purine (2.3 mM), xanthine oxidase (0.02 U/ml) and iron loaded transferring (0.6 μM) complex is infused into the carotid artery near the ostium of the coronary artery in spontaneously hypertensive rats. Blood is withdrawn before and 24 hours after the FRG challenge for measuring the isoenzymes of lactic acid dehydrogenase (LDH1 :LDH2). An increase in LDH1 :LDH2 ratio reflects cell damage to the myocardium. The electrocardiogram is also taken before and 24 hours after the FRG infusion. At the end of the experiment the heart is removed, sliced in a breadloaf fashion, and stained with triphenyltetrazolium chloride to determine infarct size. A drug or vehicle is administered intravenously 10-30 minutes before the FRG challenge. A drug is considered active if there is no elevation of the LDH1 :LDH2 ratio, no ECG abnormalities and no histologic evidence of an infarction.
Male spontaneously hypertensive rats (280-320 g) from Taconic Farms, were lightly anesthetized with sodium pentobarbital (30-50 mg/kg, i.p.). […] A catheter of PE 50 tubing was inserted into the right common carotid artery to a position proximal to the ostia of the coronary arteries and used to sample blood and infuse the free radical generator (FRG) system. A second catheter of PE 10 tubing was inserted into the left jugular vein to administer drugs. The infusion system for the FRG consisted of a double syringe infusion pump, Sage Model 351, with one syringe containing xanthine oxidase (0.01 units/ml) in a HEPES (0.05M) buffer and the other syringe containing purine (2.3 mM) plus Fe^3+ loaded transferring (0.06 μM) in a HEPES (0.05M) buffer. The FRG infused separately mixes simultaneously near the ostia of the coronary arteries. This infusion was delivered at a rate of 0.03 ml/minute for a total infusion time of 10 minutes. The drugs were infused over a one minute period in a 0.9% saline vehicle.
Standard Lead II ECG was monitored continuously on a Hewlett-Packard 7758A recorder prior to treatment, throughout the FRG infusion and 10 minutes post infusion. Catheters were removed and animals were allowed to recover and fed standard rat chow and water ad libitum. 24 hours following the FRG infusion, animals were reanesthetized with sodium pentobarbital (30-50 mg/kg, i.p.) and an ECG was obtained. Blood samples were taken prior to and after the FRG infusion and at the conclusion of the experiment. These samples were centrifuged and assayed for total lactate dehydrogenase (LDH) and lactate dehydrogenase isoenzymes (LDH1 :LDH2), using electrophoresis.
The animals were sacrificed, the hearts rapidly excised, and washed free of blood and sectioned. The left ventricle was weighed and stored in a Revco® freezer at -70° C. The left ventricle was sliced into 2 mm-thick rings, incubated in a 1% triphenyltetrazolium chloride solution for 20 minutes, and then fixed in a 10% formalin solution. Infarcted areas were measured and quantitated as a percentage of the total left ventricular volume.

Carrageenan pleurisy = experiment: Carrageenan Pleurisy Test (In Vivo); parameters: species or system male Lewis rats; conditions: Rattus norvegicus, po, read-out: Rat Carrageenan Pleurisy % Inhib. of Exudate Volume; for inhibition in vivo at 100 mg/kg: at 100 mg/kg p.o
Method: The animals utilized in these studies were male Lewis rats (Charles River Breeding Laboratories) weighing between 230-250 g. […] At 5 or 24 hours after CG injection, the rats were killed by decapitation, exsanguinated, and the pleural cavity exposed by cutting the ribs on both sides of the sternum. The exudate fluid was removed from the pleural cavity with disposable plastic pipettes and its volume quantitated. The pleural cavity was then washed once with phosphate buffered saline containing fetal bovine serum (1:1) and the washings combined with the exudate. The total number of cells in the pleural cavity was quantitated using a Coulter Counter (Model ZM) adjusted to exclude any contaminating RBC. (Published in "Plant Flavonoids in Biology & Medicine: Biochemical, Pharmacological and Structure-Activity Relationships" p. 231-242 (1986) Alan R. Liss, Inc.)

ear edema = experiment: Mouse Ear Edema Test (In Vivo), arachidonic acid; parameters: species or system CD-1 male mice; conditions: topical, 1 h, at 1 mg topically
Text: Invest. Dermatol. 80:48 (1983) and Hames, Opas and Bonney, "Arachidonic Acid Metabolites in Mouse Ear Edema" Advances in Inflammation Research, 11:57 (1986). […] CD-1 male mice weighing 15 to 25 g were employed, and they were designated as follows: (1) Control Group, in which no arachidonic acid or test compound was to be applied, (2) Arachidonic Acid-Treated Group, in which no test compound was to be applied, and (3) Treated Group, in which the test compound was to be applied first, followed by the application of arachidonic acid. In the case of the Group (3) animals, the test compound, dissolved in acetone, was applied to the dorsal surface of the right ear of the mouse with a 25-microliter pipettor, with the dose of the test compound being varied. After 0.5 hours in some cases and 4 hours in others, the arachidonic acid was topically applied in the same manner as above to the pretreated ear areas. In each case of arachidonic acid application, an amount of 0.5 mg dissolved in 25 microliters of acetone was used. After 1 hour, the mice were sacrificed by carbon dioxide inhalation. A 6 mm-diameter standard biopsy punch was used to obtain a uniform tissue sample from the ear of each mouse so treated, and the tissue samples were weighed to the nearest 0.1 mg. The percent inhibition of ear edema formation was calculated as follows: [formula]

## CCCc1c(OCCCCc2cccc(O)c2O)ccc(C(C)=O)c1O [1-[2-Hydroxy-4-[4-(2,3-dihydroxyphenyl)butoxy]-3-propylphenyl]ethanone]
[1]; 10 mg/kg p.o
  Rat Acetic Acid Colitis Model % Inhib. of Myeloperoxidase Accumulation: 46 ± 7%
[1]; 30 mg/kg p.o
  Rat Acetic Acid Colitis Model % Inhib. of Myeloperoxidase Accumulation: 89 ± 11%
[2]; 10 mg/kg iv
  Rat Ischemia Model Infarcts/Total: 1/5
  Rat Ischemia Model % Infarction: 12%
Carrageenan pleurisy
  inhibition in vivo at 100 mg/kg: 53%

## CCCc1c(OCCCCCCc2ccc(C(C)C)c(O)c2O)ccc(C(C)=O)c1O [1-[2-hydroxy-4 [6-[2,3 dihydroxy-4-(1-methylethyl)phenyl]hexyloxy]-3 propylphenyl]ethanone]
[1]; 10 mg/kg p.o
  Rat Acetic Acid Colitis Model % Inhib. of Myeloperoxidase Accumulation: 65 ± 10%
[2]; 10 mg/kg iv
  Rat Ischemia Model Infarcts/Total: 2/5
  Rat Ischemia Model % Infarction: 11%

## CCCc1c(OCCCCCCc2cccc(O)c2O)ccc(C(C)=O)c1O [1-[2-hydroxy-4-[6-(2,3-dihydroxyphenyl)hexyloxy]-3-propylphenyl]ethanone]
Ear edema
  inhibition in vivo at 1 mg: 21%
[2]; 10 mg/kg iv
  Rat Ischemia Model Infarcts/Total: 4/4
  Rat Ischemia Model % Infarction: 24%
Carrageenan pleurisy
  inhibition in vivo at 100 mg/kg: 51%

## CCCc1c(OCCCc2ccc(O)c(O)c2)ccc(C(=O)O)c1O [4-[3-(3,4-Dihydroxyphenyl)propoxy]-2-hydroxy-3-propylbenzoic acid]
[1]; 30 mg/kg p.o
  Rat Acetic Acid Colitis Model % Inhib. of Myeloperoxidase Accumulation: 39 ± 5%
Ear edema
  inhibition in vivo at 1 mg: 32%
Carrageenan pleurisy
  inhibition in vivo at 100 mg/kg: 55%

## CCCc1c(OCCCCc2cccc(O)c2O)ccc(C(=O)O)c1O [4-[4-(2,3-dihydroxyphenyl)butoxy]-2-hydroxy-3-propylbenzoic acid]
[1]; 10 mg/kg p.o
  Rat Acetic Acid Colitis Model % Inhib. of Myeloperoxidase Accumulation: 73 ± 10%
[1]; 30 mg/kg p.o
  Rat Acetic Acid Colitis Model % Inhib. of Myeloperoxidase Accumulation: 71 ± 11%
Ear edema
  inhibition in vivo at 1 mg: 17%
[2]; 10 mg/kg iv
  Rat Ischemia Model Infarcts/Total: 2/5
  Rat Ischemia Model % Infarction: 8%
Carrageenan pleurisy
  inhibition in vivo at 100 mg/kg: 76%

## CCCc1c(OCCCCCc2cccc(O)c2O)ccc(C(=O)O)c1O [4-[5-(2,3-Dihydroxyphenyl)pentyloxy]-2-hydroxy-3-propylbenzoic acid]
[1]; 1 mg/kg p.o
  Rat Acetic Acid Colitis Model % Inhib. of Myeloperoxidase Accumulation: 96 ± 13%
Ear edema
  inhibition in vivo at 1 mg: 0%
[2]; 10 mg/kg iv
  Rat Ischemia Model Infarcts/Total: 4/5
  Rat Ischemia Model % Infarction: 15%
Carrageenan pleurisy
  inhibition in vivo at 100 mg/kg: 63%

## CCCc1c(OCCCCCCc2cccc(O)c2O)ccc(C(=O)OCC)c1O [4-[6-(2,3-Dihydroxyphenyl)hexyloxy]-2-hydroxy-3-propylbenzoic acid ethyl ester]
[1]; 1 mg/kg p.o
  Rat Acetic Acid Colitis Model % Inhib. of Myeloperoxidase Accumulation: 40 ± 9%
[1]; 3 mg/kg p.o
  Rat Acetic Acid Colitis Model % Inhib. of Myeloperoxidase Accumulation: 67 ± 11%
Ear edema
  inhibition in vivo at 1 mg: 64%
Carrageenan pleurisy
  inhibition in vivo at 100 mg/kg: 44%

## CCCc1c(OCCCCCCc2cccc(O)c2O)ccc(C(=O)O)c1O [4-[6-(2,3-Dihydroxyphenyl)hexyloxy]-2-hydroxy-3-propylbenzoic acid]
[1]; 10 mg/kg p.o
  Rat Acetic Acid Colitis Model % Inhib. of Myeloperoxidase Accumulation: 42 ± 2%
[1]; 30 mg/kg p.o
  Rat Acetic Acid Colitis Model % Inhib. of Myeloperoxidase Accumulation: 67 ± 15%
Ear edema
  inhibition in vivo at 1 mg: 46%
[2]; 10 mg/kg iv
  Rat Ischemia Model Infarcts/Total: 4/5
  Rat Ischemia Model % Infarction: 8%
Carrageenan pleurisy
  inhibition in vivo at 100 mg/kg: 68%

## O=C(O)c1ccc(OCCCCCCc2cccc(O)c2O)cc1O [4-[6-(2,3-Dihydroxyphenyl)hexyloxy]-2-hydroxybenzoic acid]
[1]; 1 mg/kg p.o
  Rat Acetic Acid Colitis Model % Inhib. of Myeloperoxidase Accumulation: 82 ± 9%
[1]; 3 mg/kg p.o
  Rat Acetic Acid Colitis Model % Inhib. of Myeloperoxidase Accumulation: 81 ± 15%
Ear edema
  inhibition in vivo at 1 mg: 50%
[2]; 10 mg/kg iv
  Rat Ischemia Model Infarcts/Total: 3/5
  Rat Ischemia Model % Infarction: 10%
Carrageenan pleurisy
  inhibition in vivo at 100 mg/kg: 0%

## O=C(O)c1ccc(OCCCCCCc2cccc(O)c2O)cc1 [4-[6-(2,3-Dihydroxyphenyl)hexyloxy]benzoic acid]
[1]; 3 mg/kg p.o
  Rat Acetic Acid Colitis Model % Inhib. of Myeloperoxidase Accumulation: 79 ± 8%
[1]; 10 mg/kg p.o
  Rat Acetic Acid Colitis Model % Inhib. of Myeloperoxidase Accumulation: 89 ± 28%
Ear edema
  inhibition in vivo at 1 mg: 48%
[2]; 10 mg/kg iv
  Rat Ischemia Model Infarcts/Total: 2/5
  Rat Ischemia Model % Infarction: 19%
Carrageenan pleurisy
  inhibition in vivo at 100 mg/kg: 46%

## CCCc1c(OCCCCCCc2ccc(O)c(O)c2)ccc(C(=O)O)c1O [4-[6-(3,4-dihydroxyphenyl)hexyloxy]-2-hydroxy-3-propylbenzoic acid]
Ear edema
  inhibition in vivo at 1 mg: 21%
[2]; 5 mg/kg iv
  Rat Ischemia Model Infarcts/Total: 1/5
  Rat Ischemia Model % Infarction: 11%
Carrageenan pleurisy
  inhibition in vivo at 100 mg/kg: 0%

## CCCc1c(OCCCCCCCc2cccc(O)c2O)ccc(C(=O)O)c1O [4-[7-(2,3-dihydroxyphenyl)heptyloxy]-2-hydroxy-3-propylbenzoic acid]
Ear edema
  inhibition in vivo at 1 mg: 57%
[2]; 10 mg/kg iv
  Rat Ischemia Model Infarcts/Total: 3/5
  Rat Ischemia Model % Infarction: 18%
Carrageenan pleurisy
  inhibition in vivo at 100 mg/kg: 57%

## CCCc1c(OCCCCCCCCCCc2cccc(O)c2O)ccc(C(=O)O)c1O [4-[10-(2,3-dihydroxyphenyl)decyloxy]-2-hydroxy-3-propylbenzoic acid]
Ear edema
  inhibition in vivo at 1 mg: 49%
[2]; 10 mg/kg iv
  Rat Ischemia Model Infarcts/Total: 3/3
  Rat Ischemia Model % Infarction: 13%
Carrageenan pleurisy
  inhibition in vivo at 100 mg/kg: 61%

## CCCc1c(O)c(C(=O)O)cc(Cl)c1OCCCCCCc1cccc(O)c1O [5-Chloro-2-hydroxy-4-[6-(2,3-dihydroxyphenyl]hexyloxy]-3-propylbenzoic acid]
[1]; 30 mg/kg p.o
  Rat Acetic Acid Colitis Model % Inhib. of Myeloperoxidase Accumulation: 44 ± 6%
Ear edema
  inhibition in vivo at 1 mg: 51%
Carrageenan pleurisy; at 50 mg/kg p.o
  inhibition in vivo at 50 mg/kg: 45%
